Laboratory results: ChEMBL document CHEMBL1201862, “PubChem BioAssay data set” (2004)
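A five-concentration, 48-hour dose response in 96-well plates underlies each endpoint, interpolated linearly between surrounding concentrations. GI50 marks 50% less growth.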 Calls of active or inactive are those of the source. Cut-off read from the data, not from the text of the source: active = GI50 up to about 1.1 µM and inactive = higher.

Key:
Test in all cases: NCI tumour cell line growth inhibition, 48 h
SF-268 = test system: SF-268
TK-10 = test system: TK-10
SK-MEL-28 = test system: SK-MEL-28
OVCAR-3 = test system: OVCAR-3
SK-MEL-2 = test system: SK-MEL-2
HT-29 = test system: HT-29
SF-539 = test system: SF-539
SNB-19 = test system: SNB-19
CCRF-CEM = test system: CCRF-CEM
HCT-15 = test system: HCT-15
LOX IMVI = test system: LOX IMVI
A549 = test system: A549
COLO 205 = test system: COLO 205
U-251 = test system: U-251
MOLT-4 = test system: MOLT-4
OVCAR-4 = test system: OVCAR-4
SK-OV-3 = test system: SK-OV-3
A498 = test system: A498
NCI-H226 = test system: NCI-H226
RXF 393 = test system: RXF 393
M19-MEL = test system: M19-MEL
SNB-78 = test system: SNB-78
SW-620 = test system: SW-620
HCT-116 = test system: HCT-116
KM12 = test system: KM12
HL-60 = test system: HL-60
SF-295 = test system: SF-295
UACC-62 = test system: UACC-62
XF498 = test system: XF498
Malme-3M = test system: Malme-3M
HOP-92 = test system: HOP-92
NCI-H460 = test system: NCI-H460
OVCAR-8 = test system: OVCAR-8
UO-31 = test system: UO-31
DMS-114 = test system: DMS-114
SR = test system: SR
ACHN = test system: ACHN
RPMI-8226 = test system: RPMI-8226
SN12C = test system: SN12C
KM-20L2 = test system: KM-20L2
EKVX = test system: EKVX
DLD-1 = test system: DLD-1
OVCAR-5 = test system: OVCAR-5
UACC-257 = test system: UACC-257
K562 = test system: K562
SK-MEL-5 = test system: SK-MEL-5
SNB-75 = test system: SNB-75
HOP-18 = test system: HOP-18
NCI-H522 = test system: NCI-H522
LXFL 529 = test system: LXFL 529
M14 = test system: M14
DMS-273 = test system: DMS-273
IGROV-1 = test system: IGROV-1
786-0 = test system: 786-0
NCI-H23 = test system: NCI-H23
CAKI-1 = test system: CAKI-1
HCC 2998 = test system: HCC 2998
HOP-62 = test system: HOP-62

SMILES: Cc1cccc2c(=O)c([Se]c3coc4c(C)cccc4c3=O)coc12
- GI50 (SF-268): 19.6 µM (inactive)
- GI50 (TK-10): 29.9 µM (inactive)
- GI50 (SK-MEL-28): 16.7 µM (inactive)
- GI50 (OVCAR-3): 25.2 µM (inactive)
- GI50 (SK-MEL-2): 18.5 µM (inactive)
- GI50 (HT-29): 25.6 µM (inactive)
- GI50 (SF-539): 16.3 µM (inactive)
- GI50 (SNB-19): 19.4 µM (inactive)
- GI50 (CCRF-CEM): 31.4 µM (inactive)
- GI50 (HCT-15): 19.4 µM
- GI50 (LOX IMVI): 20 µM (inactive)
- GI50 (A549): 7.71 µM (inactive)
- GI50 (COLO 205): > 10 µM (inactive)
- GI50 (U-251): 11.2 µM (inactive)
- GI50 (MOLT-4): 38.6 µM (inactive)
- GI50 (OVCAR-4): 16.7 µM (inactive)
- GI50 (SK-OV-3): 17.6 µM (inactive)
- GI50 (A498): 24.6 µM (inactive)
- GI50 (NCI-H226): 16.9 µM (inactive)
- GI50 (RXF 393): 17.8 µM (inactive)
- GI50 (M19-MEL): 16.5 µM (inactive)
- GI50 (SNB-78): 16.3 µM (inactive)
- GI50 (SW-620): 20.4 µM (inactive)
- GI50 (HCT-116): 5.68 µM (inactive)
- GI50 (KM12): 13.7 µM (inactive)
- GI50 (HL-60): 30.6 µM (inactive)
- GI50 (SF-295): 3.56 µM (inactive)
- GI50 (UACC-62): 17.8 µM (inactive)
- GI50 (XF498): 19.7 µM (inactive)
- GI50 (Malme-3M): 19.1 µM (inactive)
- GI50 (HOP-92): 20.8 µM (inactive)
- GI50 (NCI-H460): 5.73 µM (inactive)
- GI50 (OVCAR-8): 15.9 µM (inactive)
- GI50 (UO-31): 14.9 µM (inactive)
- GI50 (DMS-114): 17.7 µM (inactive)
- GI50 (SR): 14.8 µM (inactive)
- GI50 (ACHN): 18.4 µM (inactive)
- GI50 (RPMI-8226): 29.2 µM (inactive)
- GI50 (SN12C): 18.5 µM (inactive)
- GI50 (KM-20L2): 21.5 µM (inactive)
- GI50 (EKVX): 17.3 µM (inactive)
- GI50 (DLD-1): 20.8 µM (inactive)
- GI50 (OVCAR-5): 18.9 µM (inactive)
- GI50 (UACC-257): 18.2 µM (inactive)
- GI50 (K562): 69.5 µM (inactive)
- GI50 (SK-MEL-5): 18.2 µM (inactive)
- GI50 (SNB-75): 16.7 µM (inactive)
- GI50 (HOP-18): 19 µM (inactive)
- GI50 (NCI-H522): 31.3 µM (inactive)
- GI50 (LXFL 529): 14.6 µM (inactive)
- GI50 (M14): 16.4 µM (inactive)
- GI50 (DMS-273): 21.4 µM (inactive)
- GI50 (IGROV-1): 13.6 µM (inactive)
- GI50 (786-0): 17.3 µM (inactive)
- GI50 (NCI-H23): 17.2 µM (inactive)
- GI50 (CAKI-1): 20.7 µM (inactive)
- GI50 (HCC 2998): 21.2 µM (inactive)
- GI50 (HOP-62): 11.9 µM (inactive)

SMILES: O=C(CSc1c2ccccc2nc2ccccc12)Nc1ccccc1-c1ccccc1NC(=O)CSc1c2ccccc2nc2ccccc12
- GI50 (SF-268): 26.8 µM (inactive)
- GI50 (TK-10): 60.4 µM (inactive)
- GI50 (SK-MEL-28): 20.8 µM (inactive)
- GI50 (OVCAR-3): 16.4 µM (inactive)
- GI50 (SK-MEL-2): 17.6 µM (inactive)
- GI50 (HT-29): 34.8 µM (inactive)
- GI50 (SF-539): 14.4 µM (inactive)
- GI50 (SNB-19): 22.4 µM (inactive)
- GI50 (CCRF-CEM): > 24.6 µM (inactive)
- GI50 (HCT-15): 20.2 µM
- GI50 (LOX IMVI): 17.2 µM (inactive)
- GI50 (A549): 13.3 µM (inactive)
- GI50 (COLO 205): 30.1 µM (inactive)
- GI50 (U-251): 26.7 µM (inactive)
- GI50 (MOLT-4): 5.27 µM (inactive)
- GI50 (OVCAR-4): 1.48 µM (inactive)
- GI50 (SK-OV-3): 80.4 µM (inactive)
- GI50 (A498): 23 µM (inactive)
- GI50 (NCI-H226): 29.2 µM (inactive)
- GI50 (RXF 393): 21.5 µM (inactive)
- GI50 (M19-MEL): 23.1 µM (inactive)
- GI50 (SNB-78): 27.6 µM (inactive)
- GI50 (SW-620): 28.6 µM (inactive)
- GI50 (HCT-116): 27.2 µM (inactive)
- GI50 (KM12): 21.5 µM (inactive)
- GI50 (HL-60): 6.17 µM (inactive)
- GI50 (SF-295): 25.6 µM (inactive)
- GI50 (UACC-62): 18 µM (inactive)
- GI50 (XF498): 19.1 µM (inactive)
- GI50 (Malme-3M): 30.8 µM (inactive)
- GI50 (HOP-92): 30.8 µM (inactive)
- GI50 (NCI-H460): 29 µM (inactive)
- GI50 (OVCAR-8): 28.5 µM (inactive)
- GI50 (UO-31): 34.2 µM (inactive)
- GI50 (DMS-114): 15 µM (inactive)
- GI50 (SR): 11.1 µM (inactive)
- GI50 (ACHN): 31.5 µM (inactive)
- GI50 (RPMI-8226): 4.46 µM (inactive)
- GI50 (SN12C): 28 µM (inactive)
- GI50 (KM-20L2): 31.3 µM (inactive)
- GI50 (EKVX): 21.4 µM (inactive)
- GI50 (DLD-1): 13.9 µM (inactive)
- GI50 (OVCAR-5): 56.6 µM (inactive)
- GI50 (UACC-257): 22 µM (inactive)
- GI50 (K562): 2.37 µM (inactive)
- GI50 (SK-MEL-5): 12.8 µM (inactive)
- GI50 (SNB-75): 42.2 µM (inactive)
- GI50 (HOP-18): 79.1 µM (inactive)
- GI50 (NCI-H522): 9.42 µM (inactive)
- GI50 (LXFL 529): 9.46 µM (inactive)
- GI50 (M14): 24.4 µM (inactive)
- GI50 (DMS-273): 32.2 µM (inactive)
- GI50 (IGROV-1): 18.4 µM (inactive)
- GI50 (786-0): 6.76 µM (inactive)
- GI50 (NCI-H23): 18.9 µM (inactive)
- GI50 (CAKI-1): 26.6 µM (inactive)
- GI50 (HCC 2998): 17.4 µM (inactive)
- GI50 (HOP-62): 31.8 µM (inactive)
